According to patent US10858355B2, “Inhibitors of phosphatidylinositol 3-kinase gamma” (AstraZeneca AB, priority 2016, dated 2020):

molecular target: recombinant human PI3Kγ (aa144-1102)-6His (Homo sapiens (Human), UniProt P48736); test: Test A: Enzymatic Activity Assay for Rec Human PI3Kγ (ADP-Glo); type: biochemical; settings: 20 μM ATP, 80 μM DiC8-PIP2, 1.2 nM PI3Kγ, 15 min pre-incubation, 60 min reaction
Procedure: Pharmacological Activity Test A: Enzymatic Activity Assay for Rec Human PI3Kγ
The activity of recombinant human PI3Kγ (aa144-1102)-6His was determined by measuring the ADP level after phosphorylation of DiC8-PIP2 using a commercially available ADP-Glo™ kit from Promega. The assay was carried out in white low volume 384 well plates in a final volume of 14 μl at rt. The assay conditions contained the following: 50 mM Tris buffer pH 7.4, 2.1 mM DTT, 3 mM MgCl2, 0.05% CHAPS, 20 μM ATP, 80 μM DiC8-PIP2 and 1.2 nM PI3Kγ. […] Routinely, inhibitors were pre-incubated with 3 μl of PI3Kγ for 15 min prior to the addition of […] substrate mixture for a further 60 min enzyme reaction. The phosphorylation was stopped with the addition of 3 μl ADP-Glo™ reagent (stop solution) followed by a 40 min incubation. Prior to detection 6 μl of ADP-Glo™ Kinase Detection Reagent was added and the plates were read in a micro plate reader using a Luminescence filter.

recombinant human PI3Kγ (aa144-1102)-6His, sequence (P48736 144-1102): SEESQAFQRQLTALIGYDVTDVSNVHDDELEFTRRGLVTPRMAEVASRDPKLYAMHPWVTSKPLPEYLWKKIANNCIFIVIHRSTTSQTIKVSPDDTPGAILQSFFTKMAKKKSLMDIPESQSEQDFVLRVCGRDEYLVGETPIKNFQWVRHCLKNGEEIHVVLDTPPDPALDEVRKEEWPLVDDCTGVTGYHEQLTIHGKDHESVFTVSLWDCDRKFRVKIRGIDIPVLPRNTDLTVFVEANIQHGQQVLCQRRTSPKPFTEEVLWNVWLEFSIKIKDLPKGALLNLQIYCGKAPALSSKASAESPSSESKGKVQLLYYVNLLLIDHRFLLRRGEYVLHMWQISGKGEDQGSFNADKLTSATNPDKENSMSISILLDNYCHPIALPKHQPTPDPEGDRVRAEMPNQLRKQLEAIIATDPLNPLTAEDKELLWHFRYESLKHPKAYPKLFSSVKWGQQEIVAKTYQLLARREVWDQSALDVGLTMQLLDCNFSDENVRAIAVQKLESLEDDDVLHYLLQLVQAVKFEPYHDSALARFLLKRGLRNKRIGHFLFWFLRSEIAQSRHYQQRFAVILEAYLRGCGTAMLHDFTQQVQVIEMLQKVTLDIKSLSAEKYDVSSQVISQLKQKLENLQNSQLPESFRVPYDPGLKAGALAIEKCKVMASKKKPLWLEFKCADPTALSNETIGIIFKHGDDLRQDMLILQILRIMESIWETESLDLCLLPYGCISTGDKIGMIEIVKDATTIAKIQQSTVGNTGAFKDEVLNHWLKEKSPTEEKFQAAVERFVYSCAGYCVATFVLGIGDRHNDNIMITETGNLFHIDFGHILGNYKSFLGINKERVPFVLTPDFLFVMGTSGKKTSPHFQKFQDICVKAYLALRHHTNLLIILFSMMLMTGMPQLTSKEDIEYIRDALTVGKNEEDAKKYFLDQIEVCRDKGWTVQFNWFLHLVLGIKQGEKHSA

Point of comparison: CC(=O)Nc1nc(C)c(-c2cc3c(c(S(=O)(=O)NC4CC(F)(F)C4)c2)C(=O)N([C@@H](C)C2CC2)C3)s1 [Example 17, N-(5-{2-[(1S)-1-Cyclopropylethyl]-7-[(3,3-difluorocyclobutyl)sulfamoyl]-1-oxo-2,3-dihydro-1H-isoindol-5-yl}-4-methyl-1,3-thiazol-2-yl)acetamide], “PI3Kγ activity, pIC50” value 8.9. Against it:
- CC(=O)Nc1ncc(-c2cc3c(c(S(C)(=O)=O)c2)C(=O)N([C@@H](C)C2CC2)C3)s1 [Example 2, N-(5-{2-[(1S)-1-Cyclopropylethyl]-7-(methylsulfonyl)-1-oxo-2,3-dihydro-1H-isoindol-5-yl}-1,3-thiazol-2-yl)acetamide] — within 0.2 log units, 9.0
- CC(=O)Nc1nc(C)c(-c2cc3c(c(S(C)(=O)=O)c2)C(=O)N(C(C)C)C3)s1 [Example 3, N-{4-Methyl-5-[7-(methylsulfonyl)-1-oxo-2-(propan-2-yl)-2,3-dihydro-1H-isoindol-5-yl]-1,3-thiazol-2-yl}acetamide] — within 0.2 log units, 8.8
- CC(=O)Nc1nc(C)c(-c2cc3c(c(NC(C)=O)c2)C(=O)N([C@@H](C)C2CC2)C3)s1 [Example 5, N-(5-{7-(Acetylamino)-2-[(1S)-1-cyclopropylethyl]-1-oxo-2,3-dihydro-1H-isoindol-5-yl}-4-methyl-1,3-thiazol-2-yl)acetamide] — within 0.2 log units, 9.0
- CC(=O)Nc1nc(C)c(-c2cc3c(c(S(=O)(=O)N(C)C)c2)C(=O)N([C@@H](C)C2CC2)C3)s1 [Example 7, N-(5-{2-[(1S)-1-Cyclopropylethyl]-7-(dimethylsulfamoyl)-1-oxo-2,3-dihydro-1H-isoindol-5-yl}-4-methyl-1,3-thiazol-2-yl)acetamide] — higher, 9.1
- CNS(=O)(=O)c1cc(-c2cnc(NC(C)=O)s2)cc2c1C(=O)N([C@@H](C)C1CC1)C2 [Example 8, N-(5-{2-[(1S)-1-Cyclopropylethyl]-7-(methylsulfamoyl)-1-oxo-2,3-dihydro-1H-isoindol-5-yl}-1,3-thiazol-2-yl)acetamide] — within 0.2 log units, 9.0
- CC(=O)Nc1nc(C)c(-c2cc3c(c(S(=O)(=O)NC4CCC4)c2)C(=O)N([C@@H](C)C2CC2)C3)s1 [Example 10, N-(5-{7-(Cyclobutylsulfamoyl)-2-[(1S)-1-cyclopropylethyl]-1-oxo-2,3-dihydro-1H-isoindol-5-yl}-4-methyl-1,3-thiazol-2-yl)acetamide] — the same, 8.9
- CNS(=O)(=O)c1cc(-c2sc(NC(C)=O)nc2C)cc2c1C(=O)N(C(C)C)C2 [Example 11, N-{4-Methyl-5-[7-(methylsulfamoyl)-1-oxo-2-(propan-2-yl)-2,3-dihydro-1H-isoindol-5-yl]-1,3-thiazol-2-yl}acetamide] — within 0.2 log units, 8.8
- CC(=O)Nc1nc(C)c(-c2cc3c(c(S(=O)(=O)NCC4CC4)c2)C(=O)N([C@@H](C)C2CC2)C3)s1 [Example 13, N-(5-{2-[(1S)-1-Cyclopropylethyl]-7-[(cyclopropylmethyl)sulfamoyl]-1-oxo-2,3-dihydro-1H-isoindol-5-yl}-4-methyl-1,3-thiazol-2-yl)acetamide] — within 0.2 log units, 9.0
- CC(=O)Nc1nc(C)c(-c2cc3c(c(S(=O)(=O)NC4CC4)c2)C(=O)N([C@@H](C)C2CC2)C3)s1 [Example 14, N-(5-{2-[(1S)-1-Cyclopropylethyl]-7-(cyclopropylsulfamoyl)-1-oxo-2,3-dihydro-1H-isoindol-5-yl}-4-methyl-1,3-thiazol-2-yl)acetamide] — within 0.2 log units, 9.0
- CCNS(=O)(=O)c1cc(-c2sc(NC(C)=O)nc2C)cc2c1C(=O)N([C@@H](C)C1CC1)C2 [Example 15, N-(5-{2-[(1S)-1-Cyclopropylethyl]-7-(ethylsulfamoyl)-1-oxo-2,3-dihydro-1H-isoindol-5-yl}-4-methyl-1,3-thiazol-2-yl)acetamide] — higher, 9.4
- CC(=O)Nc1nc(C)c(-c2cc3c(c(S(=O)(=O)NC4COC4)c2)C(=O)N([C@@H](C)C2CC2)C3)s1 [Example 16, N-(5-{2-[(1S)-1-Cyclopropylethyl]-7-(oxetan-3-ylsulfamoyl)-1-oxo-2,3-dihydro-1H-isoindol-5-yl}-4-methyl-1,3-thiazol-2-yl)acetamide] — higher, 9.2
- CC(=O)Nc1nc(C)c(-c2cc3c(c(S(=O)(=O)NCC(F)(F)F)c2)C(=O)N([C@@H](C)C2CC2)C3)s1 [Example 20, N-(5-{2-[(1S)-1-Cyclopropylethyl]-1-oxo-7-[(2,2,2-trifluoroethyl)sulfamoyl]-2,3-dihydro-1H-isoindol-5-yl}-4-methyl-1,3-thiazol-2-yl)acetamide] — higher, 9.2
- CC(=O)Nc1nc(C)c(-c2cc3c(c(S(N)(=O)=O)c2)C(=O)N(C(C)C)C3)s1 [Example 21, N-{4-Methyl-5-[1-oxo-2-(propan-2-yl)-7-sulfamoyl-2,3-dihydro-1H-isoindol-5-yl]-1,3-thiazol-2-yl}acetamide] — the same, 8.9
- CC(=O)Nc1nc(C)c(-c2cc3c(c(NS(=O)(=O)C4CC4)c2)C(=O)N([C@@H](C)C2CC2)C3)s1 [Example 23, N-(5-{2-[(1S)-1-Cyclopropylethyl]-7-[(cyclopropylsulfonyl)amino]-1-oxo-2,3-dihydro-1H-isoindol-5-yl}-4-methyl-1,3-thiazol-2-yl)acetamide] — higher, 9.2
- CCCS(=O)(=O)Nc1cc(-c2sc(NC(C)=O)nc2C)cc2c1C(=O)N([C@@H](C)C1CC1)C2 [Example 24, N-(5-{2-[(1S)-1-Cyclopropylethyl]-1-oxo-7-[(propylsulfonyl)amino]-2,3-dihydro-1H-isoindol-5-yl}-4-methyl-1,3-thiazol-2-yl)acetamide] — within 0.2 log units, 9.0
- CCS(=O)(=O)Nc1cc(-c2sc(NC(C)=O)nc2C)cc2c1C(=O)N([C@@H](C)C1CC1)C2 [Example 25, N-(5-{2-[(1S)-1-Cyclopropylethyl]-7-[(ethylsulfonyl)amino]-1-oxo-2,3-dihydro-1H-isoindol-5-yl}-4-methyl-1,3-thiazol-2-yl)acetamide] — higher, 9.1
- CC(=O)Nc1nc(C)c(-c2cc3c(c(NS(=O)(=O)C(C)(C)C)c2)C(=O)N([C@@H](C)C2CC2)C3)s1 [Example 26, N-(5-{7-[(tert-Butylsulfonyl)amino]-2-[(1S)-1-cyclopropylethyl]-1-oxo-2,3-dihydro-1H-isoindol-5-yl}-4-methyl-1,3-thiazol-2-yl)acetamide] — within 0.2 log units, 9.0
- CC(=O)Nc1nc(C)c(-c2cc3c(c(NS(=O)(=O)CC4CC4)c2)C(=O)N([C@@H](C)C2CC2)C3)s1 [Example 28, N-[5-(2-[(1S)-1-Cyclopropylethyl]-7-{[(cyclopropylmethyl)sulfonyl]amino}-1-oxo-2,3-dihydro-1H-isoindol-5-yl)-4-methyl-1,3-thiazol-2-yl]acetamide] — higher, 9.1
- CC(=O)Nc1nc(C)c(-c2cc3c(c(NS(=O)(=O)c4cn(C)nc4C)c2)C(=O)N([C@@H](C)C2CC2)C3)s1 [Example 29, N-[5-(2-[(1S)-1-Cyclopropylethyl]-7-{[(1,3-dimethyl-1H-pyrazol-4-yl)sulfonyl]amino}-1-oxo-2,3-dihydro-1H-isoindol-5-yl)-4-methyl-1,3-thiazol-2-yl]acetamide] — the same, 8.9
- CNS(=O)(=O)c1cc(-c2cnc3c(N)nccn23)cc2c1C(=O)N([C@@H](C)C1CC1)C2 [Example 31, 6-(8-Aminoimidazo[1,2-a]pyrazin-3-yl)-2-[(1S)-1-cyclopropylethyl]-N-methyl-3-oxo-2,3-dihydro-1H-isoindole-4-sulfonamide] — lower, 8.7
- CNS(=O)(=O)c1cc(-c2sc(NC(C)=O)nc2C)cc2c1C(=O)N(C(C)(C)C1CC1)C2 [Example 32, N-{5-[2-(2-Cyclopropylpropan-2-yl)-7-(methylsulfamoyl)-1-oxo-2,3-dihydro-1H-isoindol-5-yl]-4-methyl-1,3-thiazol-2-yl}acetamide] — within 0.2 log units, 9.0

same assay, conditions: 20 μM ATP, 80 μM DiC8-PIP2, 1.2 nM PI3Kγ, 15 min pre-incubation, 60 min reaction; read-out: PI3Kγ activity, pIC50 (converted)

Point of comparison: CC(=O)Nc1ncc(-c2cc3c(c(NS(C)(=O)=O)c2)C(=O)N([C@@H](C)C2CC2)C3)s1 [Example 22, N-(5-{2-[(1S)-1-Cyclopropylethyl]-7-[(methylsulfonyl)amino]-1-oxo-2,3-dihydro-1H-isoindol-5-yl}-1,3-thiazol-2-yl)acetamide], IC50 0.794 nM. Against it:
- CC(=O)Nc1ncc(-c2cc3c(c(S(N)(=O)=O)c2)C(=O)N([C@@H](C)C2CC2)C3)s1 [Example 12, N-(5-{2-[(1S)-1-Cyclopropylethyl]-1-oxo-7-sulfamoyl-2,3-dihydro-1H-isoindol-5-yl}-1,3-thiazol-2-yl)acetamide] — 1.6-fold higher, 1.26 nM
- CC(=O)Nc1nc(C)c(-c2cc3c(c(S(=O)(=O)NCC4(CF)CC4)c2)C(=O)N([C@@H](C)C2CC2)C3)s1 [Example 19, N-(5-{2-[(1S)-1-Cyclopropylethyl]-7-({[1-(fluoromethyl)cyclopropyl]methyl}sulfamoyl)-1-oxo-2,3-dihydro-1H-isoindol-5-yl}-4-methyl-1,3-thiazol-2-yl)acetamide] — 2-fold lower, 0.398 nM
- CNS(=O)(=O)c1cc(-c2sc(NC(C)=O)nc2Cl)cc2c1C(=O)N([C@@H](C)C1CC1)C2 [Example 30, N-(4-Chloro-5-{2-[(1S)-1-cyclopropylethyl]-7-(methylsulfamoyl)-1-oxo-2,3-dihydro-1H-isoindol-5-yl}-1,3-thiazol-2-yl)acetamide] — 1.6-fold higher, 1.26 nM
